Source: PMC5372681, “Study of Different Variants of Mo Enzyme crARC and the Interaction with Its Partners crCytb5-R and crCytb5-1” (International Journal of Molecular Sciences, 2017)

Experiments:
Assay type in all cases: biochemical
[1] = target: T1, crARC (Chlamydomonas reinhardtii, UniProt F8UWQ7); assay: HPLC of benzamidine formed; details: 1 mM benzamidoxime, 3 mM dithionite, 2 mM benzylviologen, 100 mM potassium phosphate pH 7.4, 37 °C
T1 construct: gene ARC; N-terminal His6 (pQE80), E. coli TP1000, Ni-NTA

[2] = target: T2, crARC (Chlamydomonas reinhardtii, UniProt F8UWQ7, D182A); assay: HPLC of adenine formed; details: 0.5 mM HAP, 3 mM dithionite, 2 mM benzylviologen, 100 mM potassium phosphate pH 7.4, 37 °C
T2 construct: gene ARC; N-terminal His6 (pQE80), E. coli TP1000, Ni-NTA

[3] = target: T3, crARC (Chlamydomonas reinhardtii, UniProt F8UWQ7, F210A); assay: HPLC of adenine formed; details: 0.5 mM HAP, 3 mM dithionite, 2 mM benzylviologen, 100 mM potassium phosphate pH 7.4, 37 °C
T3 construct: gene ARC; N-terminal His6 (pQE80), E. coli TP1000, Ni-NTA

[4] = target: T1, crARC; assay: HPLC of adenine formed; details: 0.5 mM HAP, 3 mM dithionite, 2 mM benzylviologen, 100 mM potassium phosphate pH 7.4, 37 °C
[5] = target: T4, crARC (Chlamydomonas reinhardtii, UniProt F8UWQ7, R276A); assay: HPLC of adenine formed; details: 0.5 mM HAP, 3 mM dithionite, 2 mM benzylviologen, 100 mM potassium phosphate pH 7.4, 37 °C
T4 construct: gene ARC; N-terminal His6 (pQE80), E. coli TP1000, Ni-NTA
T4 sequence (F8UWQ7 entry or part of it R276A): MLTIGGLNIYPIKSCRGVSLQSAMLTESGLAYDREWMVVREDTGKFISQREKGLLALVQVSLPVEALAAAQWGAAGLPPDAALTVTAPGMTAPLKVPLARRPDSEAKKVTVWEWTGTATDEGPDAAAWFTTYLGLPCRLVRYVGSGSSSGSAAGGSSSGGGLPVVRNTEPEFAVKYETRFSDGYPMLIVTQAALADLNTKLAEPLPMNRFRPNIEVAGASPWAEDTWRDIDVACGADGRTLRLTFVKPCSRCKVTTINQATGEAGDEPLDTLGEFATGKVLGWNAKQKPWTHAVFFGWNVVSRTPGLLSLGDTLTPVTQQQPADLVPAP

T1 sequence (F8UWQ7 entry or part of it): as the sequence (F8UWQ7 entry or part of it R276A) above, with A276R counted along it
T2 sequence (F8UWQ7 entry or part of it D182A): as the sequence (F8UWQ7 entry or part of it R276A) above, with D182A, A276R counted along it
T3 sequence (F8UWQ7 entry or part of it F210A): as the sequence (F8UWQ7 entry or part of it R276A) above, with F210A, A276R counted along it

Compound | HPLC of benzamidine formed [1] | HPLC of adenine formed [2] | HPLC of adenine formed [3] | HPLC of adenine formed [4] | HPLC of adenine formed [5]
NC(=NO)c1ccccc1 [benzamidoxime] | the crARC activity was assayed in vitro using benzamidoxime as a substrate |  |  |  | 
ONc1ncnc2[nH]cnc12 [HAP] |  | the mutants, D182A, F210A and R276A almost completely lost the mARC activity with dithionite | the mutants, D182A, F210A and R276A almost completely lost the mARC activity with dithionite | The crARC HAP reduction activity was determined with dithionite | the mutants, D182A, F210A and R276A almost completely lost the mARC activity with dithionite
